Reference: patent publication US20080200531A1, “CDKI pathway inhibitors as inhibitors of tumor cell growth” (priority 2006, published 2008)

Tests used:
[1] = system: cyclin/CDK complexes (CDK1, CDK2, CDK3, CDK6); assay: Cyclin/CDK kinase assays, comparison over all complexes; format: biochemical, human
Protocol: (§1) To test the above hypothesis, we determined whether several CDKI pathway inhibitors, including two SNX9 class compounds (SNX9 and SNX9-1), two compounds of a different structural class (SNX14 and SNX2) and another unrelated inhibitor (SNX35), inhibit the kinase activity of different complexes formed in vitro by purified cyclin/CDK complexes. This analysis was carried out as a service by Upstate Biotechnology, Inc.
(§2) At the first step, all the compounds were tested at 100 μM concentration. […] For SNX14 and SNX2, the relative efficacy of inhibition was CDK1>CDK2˜CDK3>CDK6. For SNX9 and SNX9-1, the order was CDK3>CDK1>CDK2>CDK6 (FIG. 12).

[2] = system: human colon (HCT116) cancer xenografts; assay: Therapeutic Dose Study in nude mice bearing HCT116 xenografts; format: in vivo; settings: 70 mg/kg intra-tumorally; for decrease in the tumor size on day 31 relative to the control / mice that died or were sacrificed by day 31: 9 injections over three weeks; for mice that died or were sacrificed by day 31: groups of 10, control 60%; for P, decrease in the tumor size on day 31 relative to the control: 9 injections, paired two-tailed t-test, dead or sacrificed mice taken as 2000 mm^3
Protocol: (§3) Male NCr nude mice, aged approximately 6-8 weeks were used for the study, which was carried out as a service by Taconic Biotechnology, Rensselaer, N.Y. Animals were maintained under virus free barrier conditions with continuous health monitoring. The administration of test materials, all data collection and disposal of study animals was in compliance with all relevant Taconic Biotechnology Standard Operating Procedures as well as The Guide for the Care and Use of Laboratory Animals. Study animals were observed upon arrival and daily throughout the study for overall health, behavior and morbidity. Test animals were subject to body weight measurement to determine dosage volumes of test articles.
With this information, we then carried out the Therapeutic Dose Study of SNX9 and SNX9-1, in nude mice bearing established human colon (HCT116) cancer xenografts. HCT116 was from American Type Culture Collection (ATCC); ATCC information was referenced for the cryopreservation and growing of the cells. The cells were injected at 5×10^6 subcutaneously in the intra-scapular region. The tumor dimensions were measured using vernier calipers. To approximate the subcutaneous tumor size, the calipers were compressed on the skin slightly but not so tightly as to grip the subcutaneous mass. The maximal dimension of the tumor was recorded as L. The dimension perpendicular to L was recorded as W. The formula: Volume=0.5*L*W^2 was used. Eight days following tumor cell injection into the intra-scapular region, when all the tumor inoculi became palpable, groups of 10 mice were treated for 21 days with PBS (control), SNX9 or SNX9-1 (each at 70 mg/kg), dissolved as in the Range Finder Study.
The compounds were injected intra-tumorally three times a week, on alternating days, for a total of 9 injections per animal over three weeks. Mice were sacrificed when tumor size exceeded 2000 mm^3. […] By day 31 (2 days after the end of treatment), 6 of 10 mice in the control group (60%) died or were sacrificed, as compared to 40% of the mice in SNX9-treated group and only 10% of the mice in SNX9-1 treated group. Statistical analysis of differences in the tumor size on day 31 was carried out using paired two-tailed t-test; for this analysis, the tumor volume of all the mice that died or were sacrificed before day 31 was assumed to be 2000 mm^3.

[3] = Range Finder Study (acute toxicity, MTD) in NCr nude mice; format: in vivo; settings: for impact on White Blood Cell count, first iteration: up to 17.6 mg/kg intravenously; for impact on White Blood Cell count, second iteration / toxicity in the Range Finder Study: up to 70.4 mg/kg intravenously
Protocol: as §3
The initial part of this analysis was a Range Finder Study, designed to evaluate acute toxicity and to identify the maximum tolerated dose (MTD) for therapeutic study. The Range Finder Study was performed twice. For the first iteration, 30 mice were injected intravenously with SNX9 and SNX9-1 in groups of 3 with phosphate buffered saline (PBS) only, 2.2 mg/kg SNX9, 4.4 mg/kg SNX9 8.8 mg/kg SNX9, 17.6 mg/kg SNX9, 80% PBS: 20% DMSO, 2.2 mg/kg SNX9-1, 4.4 mg/kg SNX9-1 8.8 mg/kg SNX9-1, 17.6 mg/kg SNX9-1. SNX9 was dissolved in PBS and SNX9-1 was dissolved in 80% PBS:20% DMSO. The volume injected per animal was approximately 0.1 ml/injection. […] All other animals appeared healthy and thrived for the duration of the 3 day period of observation, and their general health and body weight were assessed. For all the mice, there was no significant weight change (see Table 4). At the end of the 3 day observation period all the mice were euthanized and a terminal blood sample was collected via cardiac puncture. These blood samples were analyzed for complete blood count evaluation. […] A slight elevation of Red Blood Cell count was detected in approximately half of the groups, although this elevation was less than a 7% increase above the upper reference range and was not considered significant. All other blood count categories placed within the reference range.
For the second iteration, 24 mice were injected intravenously with SNX9 and SNX9-1 in groups of 3 with PBS only, 17.6 mg/kg SNX9, 35.2 mg/kg SNX9, 70.4 mg/kg SNX9, 80% PBS:20% DMSO, […] SNX9-1, 35.2 mg/kg SNX9-1, 70.4 mg/kg SNX9-1. […] All other animals were healthy for the duration of the 3 day period during which the animals were observed and their general health and body weight were assessed. For all the mice, there was no significant weight change (see Table 4). The average beginning weight for the mice in the second iteration was 23.7 g±1.73. After the 3 day observation period all the mice were euthanized and a terminal blood sample was collected via cardiac puncture. These blood samples were analyzed for complete blood count evaluation. […] A slight elevation of Red Blood Cell count was detected in approximately 7 out of eight of the groups, although this elevation was less than a 6% increase above the upper reference range and was not considered significant. All other blood count categories placed within the reference range.

[4] = system: HT1080-derived reporter cell line; assay: Growth inhibition and cell death in HT1080-derived reporter cell line; format: cell-based, human; settings: cell death detected microscopically by cell detachment
Excerpt: The combination of p21 and SNX9-class compounds leads to both G1 and G2/M arrest, at the levels expected for the combined effects of p21 and SNX9 (FIG. 6).

CDK1/cyclinB (h) = target: T1, CDK1/cyclinB (h) (Homo sapiens, UniProt P06493); assay: Cyclin/CDK kinase assay (Upstate), CDK1/cyclinB; format: biochemical; settings: 100 μM, re-tested at 20 and 40 μM (SNX9, SNX2) or 10 and 20 μM (SNX9-1, SNX14)
T1 construct: purchased Upstate Biotechnology, Inc
T1 sequence (P06493 whole entry): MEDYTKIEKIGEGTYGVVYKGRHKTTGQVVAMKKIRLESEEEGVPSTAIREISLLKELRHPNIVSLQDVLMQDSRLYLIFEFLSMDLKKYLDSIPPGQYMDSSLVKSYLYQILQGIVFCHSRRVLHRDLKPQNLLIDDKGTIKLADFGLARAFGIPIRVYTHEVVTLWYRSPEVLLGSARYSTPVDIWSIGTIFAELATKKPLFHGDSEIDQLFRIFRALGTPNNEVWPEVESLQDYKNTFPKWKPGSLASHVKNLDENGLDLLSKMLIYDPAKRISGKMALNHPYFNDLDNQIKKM
T1 sequence (P14635 whole entry partner): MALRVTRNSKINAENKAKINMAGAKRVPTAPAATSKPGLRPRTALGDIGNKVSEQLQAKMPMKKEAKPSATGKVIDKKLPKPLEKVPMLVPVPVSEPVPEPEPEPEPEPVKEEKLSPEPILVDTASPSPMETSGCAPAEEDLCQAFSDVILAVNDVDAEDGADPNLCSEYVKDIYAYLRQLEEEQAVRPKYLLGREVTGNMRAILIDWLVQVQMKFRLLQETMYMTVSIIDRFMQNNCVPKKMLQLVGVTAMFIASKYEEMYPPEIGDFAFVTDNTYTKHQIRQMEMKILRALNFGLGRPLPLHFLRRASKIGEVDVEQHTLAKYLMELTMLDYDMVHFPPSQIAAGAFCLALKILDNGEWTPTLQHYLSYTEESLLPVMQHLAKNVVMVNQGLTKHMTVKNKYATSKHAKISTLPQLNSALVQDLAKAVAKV
Protocol: as §1
In a final reaction volume of 25 μl, CDK1/cyclinB (h) (5-10 μU) is incubated with 8 mM MOPS pH 7.0, 0.2 mM EDTA, 0.1 mg/ml histone H1, 10 mM MgAcetate and [γ-33P-ATP] (specific activity approx. 500 cpm/pmol, 45 μM concentration). The reaction is initiated by the addition of the MgATP mix. After incubation for 40 minutes at room temperature, the reaction is stopped by the addition of 5 μl of a 3% phosphoric acid solution. 10 μl of the reaction is then spotted onto a P30 filtermat and washed three times for 5 minutes in 75 mM phosphoric acid and once in methanol prior to drying and scintillation counting.
as §2

Row | SMILES | relative efficacy of inhibition (order of CDKs) [1] | decrease in the tumor size on day 31 relative to the control [2] | mice that died or were sacrificed by day 31 [2] [%] | P, decrease in the tumor size on day 31 relative to the control [2] | deaths, second iteration ([3]; 70.4 mg/kg group of 3, intravenously, shortly after dosing, likely due to shock and not compound toxicity) | impact on White Blood Cell count, first iteration [3] | impact on White Blood Cell count, second iteration [3] | toxicity in the Range Finder Study [3] | growth inhibition of the HT1080-derived reporter cell line [4] | kinase activity of CDK1 (CDC2) (CDK1/cyclinB (h)) | deaths, first iteration ([3]; 2.2 mg/kg (lowest dose) group of 3, intravenously, day one, apparently due to shock)
1 | Cc1[nH]c2c(Cl)cccc2c1CCN [SNX9] | CDK3>CDK1>CDK2>CDK6 | did not reach statistical significance | 40 | < 0.3 | One animal died shortly after dosing | neither SNX9 nor SNX9-1 had a detectable impact on White Blood Cell count | neither SNX9 nor SNX9-1 had a detectable impact on White Blood Cell count | complete lack of toxicity | associated with the induction of both cell death (as detected microscopically by cell detachment) and cell cycle arrest | inhibited the kinase activities | 
2 | NCCc1c[nH]c2c(Cl)cc(Cl)cc12 [SNX9-1] | CDK3>CDK1>CDK2>CDK6 | highly significant | 10 | < 0.01 |  | neither SNX9 nor SNX9-1 had a detectable impact on White Blood Cell count | neither SNX9 nor SNX9-1 had a detectable impact on White Blood Cell count | complete lack of toxicity | associated with the induction of both cell death (as detected microscopically by cell detachment) and cell cycle arrest | inhibited the kinase activities | One animal died on day one
